#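 Step 1: Grow cells in 96-well plates. Step 2: Expose to compound for 48 hours at 5 concentrations. Step 3: Interpolate endpoints linearly; if unreached, use highest concentration. TGI is the concentration that stops growth completely.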
# Assays:
# Experiment in all cases: NCI anticancer screen, dose series, 48 h
# [1] = tested on: 786-0 renal
# [2] = tested on: A498 renal
# [3] = tested on: A549 NSCLC
# [4] = tested on: ACHN renal
# [5] = tested on: BT-549 breast
# [6] = tested on: CAKI-1 renal
# [7] = tested on: CCRF-CEM leukemia
# [8] = tested on: COLO 205 colon
# [9] = tested on: DU-145 prostate
# [10] = tested on: EKVX NSCLC
# [11] = tested on: HCC-2998 colon
# [12] = tested on: HCT-116 colon
# [13] = tested on: HCT-15 colon
# [14] = tested on: HL-60(TB) leukemia
# [15] = tested on: HOP-62 NSCLC
# [16] = tested on: HOP-92 NSCLC
# [17] = tested on: HS 578T breast
# [18] = tested on: HT29 colon
# [19] = tested on: IGROV1 ovarian
# [20] = tested on: K-562 leukemia
# [21] = tested on: KM12 colon
# [22] = tested on: LOX IMVI melanoma
# [23] = tested on: M14 melanoma
# [24] = tested on: MALME-3M melanoma
# [25] = tested on: MCF7 breast
# [26] = tested on: MDA-MB-231 breast
# [27] = tested on: MDA-MB-435
# [28] = tested on: MDA-N
# [29] = tested on: MOLT-4 leukemia
# [30] = tested on: NCI-H226 lung
# [31] = tested on: NCI-H23 lung
# [32] = tested on: NCI-H460 lung
# [33] = tested on: NCI-H522 lung
# [34] = tested on: NCI/ADR-RES ovarian
# [35] = tested on: OVCAR-3 ovarian
# [36] = tested on: OVCAR-4 ovarian
# [37] = tested on: OVCAR-5 ovarian
# [38] = tested on: OVCAR-8 ovarian
# [39] = tested on: PC-3 prostate
# [40] = tested on: RPMI-8226 leukemia
# [41] = tested on: RXF 393 renal
# [42] = tested on: SF-268 CNS
# [43] = tested on: SF-295 CNS
# [44] = tested on: SF-539 CNS
# [45] = tested on: SK-MEL-2 melanoma
# [46] = tested on: SK-MEL-28 melanoma
# [47] = tested on: SK-MEL-5 melanoma
# [48] = tested on: SK-OV-3 ovarian
# [49] = tested on: SN12C renal
# [50] = tested on: SNB-19 CNS
# [51] = tested on: SNB-75 CNS
# [52] = tested on: SR leukemia
# [53] = tested on: SW-620 colon
# [54] = tested on: T-47D breast
# [55] = tested on: TK-10 renal
# [56] = tested on: U251 CNS
# [57] = tested on: UACC-257 melanoma
# [58] = tested on: UACC-62 melanoma
# [59] = tested on: UO-31 renal
structure (smiles),measurement,setting,value
CC(C)=CCC[C@@H](C)C1=C(O)C(O)C(C)=C2N=C(c3ccccc3)C(=O)OC21 (some centres undefined),TGI,[1],> 20.5 µM
same,TGI,[2],> 13.1 µM
same,TGI,[3],> 23 µM
same,TGI,[4],> 13.7 µM
same,TGI,[5],> 25 µM
same,TGI,[6],9.89 µM
same,TGI,[7],> 5.47 µM
same,TGI,[8],> 25 µM
same,TGI,[9],> 25 µM
same,TGI,[10],> 25 µM
same,TGI,[11],21.2 µM
same,TGI,[12],> 8.46 µM
same,TGI,[13],> 25 µM
same,TGI,[14],1.63 µM
same,TGI,[15],8.5 µM
same,TGI,[16],> 7.8 µM
same,TGI,[17],13.4 µM
same,TGI,[18],18.5 µM
same,TGI,[19],> 25 µM
same,TGI,[20],> 25 µM
same,TGI,[21],> 18.3 µM
same,TGI,[22],> 25 µM
same,TGI,[23],> 17.8 µM
same,TGI,[24],15.4 µM
same,TGI,[25],> 25 µM
same,TGI,[26],17.3 µM
same,TGI,[27],> 25 µM
same,TGI,[28],> 25 µM
same,TGI,[29],> 19.3 µM
same,TGI,[30],6.94 µM
same,TGI,[31],6.15 µM
same,TGI,[32],> 17 µM
same,TGI,[33],1.9 µM
same,TGI,[34],3.13 µM
same,TGI,[35],> 25 µM
same,TGI,[36],> 25 µM
same,TGI,[37],> 25 µM
same,TGI,[38],> 11 µM
same,TGI,[39],> 25 µM
same,TGI,[40],> 7.03 µM
same,TGI,[41],> 17.1 µM
same,TGI,[42],> 25 µM
same,TGI,[43],> 10.9 µM
same,TGI,[44],13.8 µM
same,TGI,[45],6.75 µM
same,TGI,[46],> 25 µM
same,TGI,[47],6.32 µM
same,TGI,[48],11.1 µM
same,TGI,[49],> 25 µM
same,TGI,[50],> 25 µM
same,TGI,[51],> 19.3 µM
same,TGI,[52],> 20.5 µM
same,TGI,[53],> 25 µM
same,TGI,[54],8.66 µM
same,TGI,[55],> 25 µM
same,TGI,[56],> 25 µM
same,TGI,[57],> 25 µM
same,TGI,[58],5.95 µM
same,TGI,[59],14.6 µM
